According to PMC8704315, “Lichen-Derived Compounds and Extracts as Biologically Active Substances with Anticancer and Neuroprotective Properties” (Pharmaceuticals, 2021):
Where “and” joins values, the source holds several entries; their conditions need not be identical. Identical values can stand only once. Like-named read-outs stand apart in the source and are kept apart here.

Legend:
A-172 cell line = test: MTT cell viability assay, 48 h, A-172; format: cell-based, Human; conditions: for IC50: Homo sapiens, read-out: IC50 A-172
T98G cell line = test: MTT cell viability assay, 48 h, T98G; format: cell-based, Human; conditions: for IC50: Homo sapiens, T98G, read-out: IC50 T98G
Protocol: Stock solutions in dimethylsulfoxide DMSO (Sigma-Aldrich, St. Louis, MO, USA), (10 mM for compounds and 10 mg/mL for extracts) were prepared and stored at −20 °C. For the experiments, the stock solutions were diluted ex tempore to the final selected concentration with complete cell culture medium.
Human glioblastoma A-172 and T98G cell lines were purchased from the American Type Culture Collection (ATCC, Manassas, VA, USA), and the European Collection of Authenticated Cell Cultures (ECACC, Salisbury, UK), respectively. The cells were grown at 37 °C in 95% humidified and 5% CO2 atmosphere. Media recommended by the provider were used to cultivate the cells: ATCC-formulated Dulbecco’s modified Eagle’s medium (DMEM) (Sigma Aldrich, St. Louis, MO, USA), and ATCC-formulated Eagle’s Minimum Essential Medium (EMEM) (Sigma-Aldrich, St. Louis, MO, USA) were used for A-172 and T98G cells, respectively. Moreover, the media were supplemented with 10% fetal bovine serum (FBS) (Biowest, France) and 1% antibiotics (penicillin and streptomycin) solution (Sigma-Aldrich, St. Louis, MO, USA). The medium for the T98G cell line was additionally supplemented with 2 mM glutamine, 1% non-essential amino acids, and 1% sodium pyruvate (all obtained from Sigma Aldrich, St. Louis, MO, USA). For the experiments, the amount of FBS was reduced to 5%. All experiments were carried out 24 h after the cells were seeded on 96-well plates.
The effect of the tested compounds and extracts on GBM cell viability was assessed by measuring the ability of cells to metabolize 3-(4,5-dimethylthiazol-2-yl)-2,5-diphenyl-tetrazolium bromide (MTT), as previously described. In brief, 1 × 10^4 cells per well were seeded on 96-well plates. After 24 h incubation, they were treated with varying concentrations of lichen-derived compounds (1, 5, 10, 25, 50 and 100 µM) and extracts (1, 5, 10, 25, 50 and 100 µg/mL). Cells treated with medium containing the respective concentrations of DMSO (Sigma-Aldrich, St. Louis, MO, USA) were used as a control. After 48 h incubation the cells were washed with phosphate-buffered saline (PBS) buffer and incubated for 4 h in the presence of PBS containing 0.5 mg/mL MTT salt (Merck, Darmstadt, Germany). Next, the formazan crystals were dissolved in acidic isopropanol. In order to enhance dissolution of formazan crystals the plates were shaken on the orbital shaker for 30 min. Finally, the absorbance was measured at λ = 570 nm and λ = 690 nm on the microplate reader (Tecan Infinite M200). All the experiments were repeated three times with at least four measurements per assay.

[1] = target: T1, tryptophan 2,3-dioxygenase (TDO) (Homo sapiens, UniProt P48775); test: Universal IDO1/IDO2/TDO Inhibitor Screening Assay Kit, TDO; format: biochemical; conditions: for inhibition at 100 µg/mL: read-out: Inhibition (%) TDO
T1 construct: purchased BPS Bioscience, Inc. (San Diego, CA, USA)
T1 sequence (P48775 whole entry, species assumed): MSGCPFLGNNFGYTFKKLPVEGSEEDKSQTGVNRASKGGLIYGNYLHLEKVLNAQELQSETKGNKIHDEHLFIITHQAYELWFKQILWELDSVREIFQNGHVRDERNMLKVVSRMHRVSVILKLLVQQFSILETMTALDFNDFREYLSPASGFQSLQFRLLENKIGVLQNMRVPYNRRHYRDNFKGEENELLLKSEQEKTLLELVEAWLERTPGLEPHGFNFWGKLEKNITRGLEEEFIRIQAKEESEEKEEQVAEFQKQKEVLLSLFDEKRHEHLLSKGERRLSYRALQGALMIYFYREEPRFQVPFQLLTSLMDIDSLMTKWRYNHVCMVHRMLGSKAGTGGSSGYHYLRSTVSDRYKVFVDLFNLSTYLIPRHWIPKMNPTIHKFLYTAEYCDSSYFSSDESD
Protocol: (§1) This colorimetric assay is based on the measurement of the ability of IDO1, IDO2 and TDO to convert L-tryptophan into N-formylkynurenine (NFK). The experiments were performed according to the manufacturer’s guidelines. The final concentration of the compounds and extracts in the reaction mixture was 100 µg/mL. The amount of NFK was measured spectrophotometrically at 320 nm using an Epoch BioTek microplate reader (BioTek Instruments, Inc., Winooski, VT, USA). The samples were run in triplicate and the results were expressed as mean ± SEM.

[2] = target: T2, glutathione reductase (GR) (Saccharomyces cerevisiae, UniProt P41921); test: Effect on glutathione reductase activity; format: biochemical; conditions: 444.4 μg/mL in the reaction mixture; on GR Inhibition under Reaction Conditions (%): key: -: not active
T2 construct: purchased Sigma Aldrich G3664
T2 sequence (P41921 17-483): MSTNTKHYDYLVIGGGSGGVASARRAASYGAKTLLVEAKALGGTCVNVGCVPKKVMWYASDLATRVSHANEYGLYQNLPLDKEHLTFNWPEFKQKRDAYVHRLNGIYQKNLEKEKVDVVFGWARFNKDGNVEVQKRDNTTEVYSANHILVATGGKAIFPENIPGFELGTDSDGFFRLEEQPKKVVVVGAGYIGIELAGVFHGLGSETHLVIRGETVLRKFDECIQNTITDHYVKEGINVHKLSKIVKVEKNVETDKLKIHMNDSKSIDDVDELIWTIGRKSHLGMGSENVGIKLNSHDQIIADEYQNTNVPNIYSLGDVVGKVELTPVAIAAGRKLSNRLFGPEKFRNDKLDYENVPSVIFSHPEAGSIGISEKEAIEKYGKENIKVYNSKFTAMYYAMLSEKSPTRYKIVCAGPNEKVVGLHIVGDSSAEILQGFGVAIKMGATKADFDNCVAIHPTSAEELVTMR
Protocol: Sample (20 µL, 5 mg/mL of pure DMSO) was mixed with 10 μL of EDTA solution and 12 μL of GSSG solution and incubated for 5 min at 25 °C; 4 μL of NADPH solution and was then added (all reagents were dissolved in […] sodium phosphate buffer, pH 7.6), and the initial absorbance (340 nm) was recorded. The reaction was then started by addition of 2 U glutathione reductase (2 μL, Sigma Aldrich no G3664), 177 μL of […] sodium phosphate buffer, and the absorbance was recorded after 5 min of incubation at 25 °C. Concentrations of reagents in the final mixture ([…]) were as follows: 0.5 mM EDTA, 10 mM GSSG and 10 mM NADPH. Blank sample was prepared with buffer instead of the sample and background was measured (mixture containing studied sample and buffer only). One unit of enzyme activity has been defined as nMol of NADPH consumed/min·mL sample, in comparison with nMol of NADPH consumed/min in blank (reagent) sample [75].

[3] = DPPH radical scavenging assay; conditions: highest concentration 750.0 µg/mL for substances, 2500.0 µg/mL for extracts; ± SEM, n = 3
[4] = target: T3, indoleamine 2,3-dioxygenases 2 (IDO2) (Homo sapiens, UniProt Q6ZQW0); test: Universal IDO1/IDO2/TDO Inhibitor Screening Assay Kit, IDO2; format: biochemical; conditions: for inhibition at 100 µg/mL: read-out: Inhibition (%) IDO2
T3 construct: purchased BPS Bioscience, Inc. (San Diego, CA, USA)
T3 sequence (Q6ZQW0 1-407): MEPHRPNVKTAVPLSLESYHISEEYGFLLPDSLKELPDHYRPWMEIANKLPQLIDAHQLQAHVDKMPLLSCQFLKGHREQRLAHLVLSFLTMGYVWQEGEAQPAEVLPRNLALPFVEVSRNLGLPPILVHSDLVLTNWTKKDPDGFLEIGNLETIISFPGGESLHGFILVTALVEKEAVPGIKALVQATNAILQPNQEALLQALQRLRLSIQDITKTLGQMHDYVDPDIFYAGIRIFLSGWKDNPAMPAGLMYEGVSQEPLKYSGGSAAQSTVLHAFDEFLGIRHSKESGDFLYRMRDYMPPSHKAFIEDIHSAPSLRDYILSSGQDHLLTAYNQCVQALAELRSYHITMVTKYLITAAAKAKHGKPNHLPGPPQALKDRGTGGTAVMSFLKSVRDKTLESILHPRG
Protocol: as §1

[5] = A 172, 48 h treatment, MTT, ± SEM

Structure (SMILES) | IC50 (A-172 cell line; A 172, 48 h) | IC50 (T98G cell line; 48 h) | inhibition at 100 µg/mL [1] | GR Inhibitory Activity (nMol Depleted NADPH/min Incubation) [2] | inhibition at 444.4 µg/mL ([2]; read-out: GR Inhibition under Reaction Conditions (%)) | DPPH IC50 [3] | inhibition at 100 µg/mL [4] | cell viability A-172 (A-172 cell line; 10–100 µM, compared to vehicle-treated control) | IC50 (A-172 cell line; [5]) | IC50 (T98G cell line; 48 h treatment, MTT, ± SEM) | reduction in cell viability T98G (T98G cell line; highest tested concentration (100 µM), 48 h MTT) | inhibition at 100 µg/mL ([1]; 100 µg/mL) | GR Inhibition under Reaction Conditions (%) [2] | inhibition at 100 µg/mL ([4]; 100 µg/mL) | Inhibition (%) TDO ([1]; 100 µg/mL) | Inhibition (%) IDO2 ([4]; 100 µg/mL)
CC(=O)C1=C(O)C=C2Oc3c(C(C)=O)c(O)c(C)c(O)c3C2(C)C1=O (single isomer, unassigned; (-)) [(−)-Usnic acid, (−)-usnic acid] | 31.5 µg/mL and 91.4 µM | 13 µg/mL and 37.8 µM | < 10% | 710.2 ± 42.3 nMol Depleted NADPH/min Incubation | 18.2 ± 2.2% | >750.0 µg/mL | < 10% |  |  |  |  |  |  |  |  | 
COc1cc(C)c(C(=O)Oc2cc(C)c(C(=O)O)c(O)c2)c(O)c1 [Evernic acid, evernic acid] |  |  |  |  |  | >750.0 µg/mL |  | ~ 80% | > 33.2 µg/mL and > 100 µM | > 33.2 µg/mL and > 100 µM | ~ 20% | < 10% | - | < 10% |  | 
Cc1cc(O)c(C=O)c2c1C(=O)Oc1c(CO)c(O)c3c(c1O2)C(O)OC3=O (centres unmarked) [Salazinic acid, salazinic acid] |  |  |  |  |  | >750.0 µg/mL |  |  | > 38.8 µg/mL and > 100 µM | > 38.8 µg/mL and > 100 µM |  | < 10% | - | < 10% | did not exhibit any inhibition effect | did not exhibit any inhibition effect
